Measurements reported in ChEMBL document CHEMBL1201861, “Genomics of Drug Sensitity in Cancer screening data, Wellcome Trust Sanger Institute”.

Key:
NCI-H1993 = assay: cells; assay type: functional, cell-based; conditions: Homo sapiens;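 further: growth inhibition of the cancer cell line, assessed with a cell viability assay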
Description: SANGER: Inhibition of human NCI-H1993 cell growth in a cell viability assay.

KYSE-140 = assay: cells; assay type: functional, cell-based; conditions: Homo sapiens;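 further: cell viability assay measuring growth inhibition in human KYSE-140 cells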
Description: SANGER: Inhibition of human KYSE-140 cell growth in a cell viability assay.

MFE-280 = assay: cells; assay type: functional, cell-based; conditions: Homo sapiens;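 further: growth inhibition of MFE-280 cells, determined with a cell viability readout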
Description: SANGER: Inhibition of human MFE-280 cell growth in a cell viability assay.

CAL-62 = assay: cells; assay type: functional, cell-based; conditions: Homo sapiens;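 further: growth inhibition of CAL-62 cells, read out with a cell viability assay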
Description: SANGER: Inhibition of human CAL-62 cell growth in a cell viability assay.

MKN-28 = assay: cells; assay type: functional, cell-based; conditions: Homo sapiens;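 further: cell viability assay read-out, IC50 reflects suppression of growth of human MKN-28 cells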
Description: SANGER: Inhibition of human MKN28 cell growth in a cell viability assay.

NCI-H2196 = assay: cells; assay type: functional, cell-based; conditions: Homo sapiens;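 further: cell viability assay used as the readout of growth inhibition in NCI-H2196 cells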
Description: SANGER: Inhibition of human NCI-H2196 cell growth in a cell viability assay.

SW1783 = assay: cells; assay type: functional, cell-based; conditions: Homo sapiens
Description: SANGER: Inhibition of human SW1783 cell growth in a cell viability assay.

NCI-H64 = assay: cells; assay type: functional, cell-based; conditions: Homo sapiens;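 further: growth inhibition of NCI-H64 cells, read out with a cell viability assay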
Description: SANGER: Inhibition of human NCI-H64 cell growth in a cell viability assay.

OAW-28 = assay: cells; assay type: functional, cell-based; conditions: Homo sapiens;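 further: growth inhibition of OAW-28 cells, read out with a cell viability assay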
Description: SANGER: Inhibition of human OAW-28 cell growth in a cell viability assay.

TUR = assay: cells; assay type: functional, cell-based; conditions: Homo sapiens;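 further: growth inhibition of human TUR cells, read out with a cell viability assay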
Description: SANGER: Inhibition of human TUR cell growth in a cell viability assay.

NCI-H522 = assay: cells; assay type: functional, cell-based; conditions: Homo sapiens;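 further: cell viability assay measuring growth inhibition of human NCI-H522 cells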
Description: SANGER: Inhibition of human NCI-H522 cell growth in a cell viability assay.

MG-63 = assay: cells; assay type: functional, cell-based; conditions: Homo sapiens;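 further: growth inhibition of human MG-63 cells, read out with a cell viability assay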
Description: SANGER: Inhibition of human MG-63 cell growth in a cell viability assay.

SU-DHL-1 = assay: SANGER: Inhibition of human SU-DHL-1 cell growth in a cell viability assay.; assay type: functional, cell-based
KOSC-2 = assay: cells; assay type: functional, cell-based; conditions: Homo sapiens;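 further: growth inhibition of KOSC-2 cells, read out by a cell viability assay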
Description: SANGER: Inhibition of human KOSC-2 cell growth in a cell viability assay.

MKN-1 = assay: cells; assay type: functional, cell-based; conditions: Homo sapiens;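 further: growth inhibition of human MKN1 cells, read out by a cell viability measurement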
Description: SANGER: Inhibition of human MKN1 cell growth in a cell viability assay.

JEG-3 = assay: cells; assay type: functional, cell-based; conditions: Homo sapiens;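 further: growth inhibition of human JEG-3 cells, read out with a cell viability assay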
Description: SANGER: Inhibition of human JEG-3 cell growth in a cell viability assay.

NCI-H358 = assay: cells; assay type: functional, cell-based; conditions: Homo sapiens;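 further: growth inhibition of NCI-H358 human cells, read out with a cell viability assay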
Description: SANGER: Inhibition of human NCI-H358 cell growth in a cell viability assay.

Capan-2 = assay: cells; assay type: functional, cell-based; conditions: Homo sapiens;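 further: Capan-2 cell growth inhibition, read out with a viability assay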
Description: SANGER: Inhibition of human Capan-2 cell growth in a cell viability assay.

LU-165 = assay: cells; assay type: functional, cell-based; conditions: Homo sapiens
Description: SANGER: Inhibition of human LU-165 cell growth in a cell viability assay.

EVSA-T = assay: cells; assay type: functional, cell-based; conditions: Homo sapiens;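 further: growth inhibition of EVSA-T cells, read out with a cell viability assay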
Description: SANGER: Inhibition of human EVSA-T cell growth in a cell viability assay.

SIG-M5 = assay: cells; assay type: functional, cell-based; conditions: Homo sapiens;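 further: cell viability assay read-out, measuring how strongly growth of cultured human SIG-M5 cells is inhibited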
Description: SANGER: Inhibition of human SIG-M5 cell growth in a cell viability assay.

HT-3 = assay: cells; assay type: functional, cell-based; conditions: Homo sapiens;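 further: growth inhibition measured with a cell viability readout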
Description: SANGER: Inhibition of human HT-3 cell growth in a cell viability assay.

RT-112 = assay: cells; assay type: functional, cell-based; conditions: Homo sapiens
Description: SANGER: Inhibition of human RT-112 cell growth in a cell viability assay.

OVCAR-3 = assay: cells; assay type: functional, cell-based; conditions: Homo sapiens;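 further: growth inhibition of human OVCAR-3 cells, determined by a cell viability assay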
Description: SANGER: Inhibition of human OVCAR-3 cell growth in a cell viability assay.

KYSE-180 = assay: cells; assay type: functional, cell-based; conditions: Homo sapiens;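 further: growth inhibition of KYSE-180 cells, read out with a cell viability assay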
Description: SANGER: Inhibition of human KYSE-180 cell growth in a cell viability assay.

HCT-15 = assay: cells; assay type: functional, cell-based; conditions: Homo sapiens;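 further: cell viability readout, IC50 reflecting suppression of HCT-15 cell growth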
Description: SANGER: Inhibition of human HCT-15 cell growth in a cell viability assay.

647-V = assay: cells; assay type: functional, cell-based; conditions: Homo sapiens;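 further: growth inhibition of 647-V cells, read out with a cell viability assay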
Description: SANGER: Inhibition of human 647-V cell growth in a cell viability assay.

NB1 = assay: cells; assay type: functional, cell-based; conditions: Homo sapiens;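 further: reduction of NB1 cell proliferation, read out with a viability assay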
Description: SANGER: Inhibition of human NB1 cell growth in a cell viability assay.

NCI-H1755 = assay: cells; assay type: functional, cell-based; conditions: Homo sapiens;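 further: cell viability readout used to measure growth inhibition of NCI-H1755 cells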
Description: SANGER: Inhibition of human NCI-H1755 cell growth in a cell viability assay.

YKG-1 = assay: cells; assay type: functional, cell-based; conditions: Homo sapiens;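 further: cell growth inhibition, read out with a viability assay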
Description: SANGER: Inhibition of human YKG-1 cell growth in a cell viability assay.

HT55 = assay: cells; assay type: functional, cell-based; conditions: Homo sapiens;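 further: cell viability readout measuring growth inhibition of human HT55 cells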
Description: SANGER: Inhibition of human HT55 cell growth in a cell viability assay.

SK-HEP1 = assay: cells; assay type: functional, cell-based, SK-HEP-1; conditions: Homo sapiens;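 further: cell viability readout used to quantify reduction in proliferation of human SK-HEP-1 cells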
Description: SANGER: Inhibition of human SK-HEP-1 cell growth in a cell viability assay.

COLO-792 = assay: cells; assay type: functional, cell-based; conditions: Homo sapiens
Description: SANGER: Inhibition of human COLO-792 cell growth in a cell viability assay.

BFTC-909 = assay: cells; assay type: functional, cell-based; conditions: Homo sapiens
Description: SANGER: Inhibition of human BFTC-909 cell growth in a cell viability assay.

SAOS-2 = assay: cells; assay type: functional, cell-based; conditions: Homo sapiens;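 further: growth inhibition of human Saos-2 cells determined by a cell viability assay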
Description: SANGER: Inhibition of human Saos-2 cell growth in a cell viability assay.

AU565 = assay: cells; assay type: functional, cell-based; conditions: Homo sapiens;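 further: cell viability assay measuring growth inhibition of human AU565 cells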
Description: SANGER: Inhibition of human AU565 cell growth in a cell viability assay.

ME-180 = assay: cells; assay type: functional, cell-based; conditions: Homo sapiens;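 further: cell viability assay measuring growth inhibition of ME-180 cells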
Description: SANGER: Inhibition of human ME-180 cell growth in a cell viability assay.

SCC-3 = assay: cells; assay type: functional, cell-based; conditions: Homo sapiens;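 further: cell viability assay measuring inhibition of SCC-3 cell growth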
Description: SANGER: Inhibition of human SCC-3 cell growth in a cell viability assay.

NCI-H1563 = assay: cells; assay type: functional, cell-based; conditions: Homo sapiens;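 further: growth inhibition of human NCI-H1563 cells, read out with a cell viability assay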
Description: SANGER: Inhibition of human NCI-H1563 cell growth in a cell viability assay.

A673 = assay: cells; assay type: functional, cell-based; conditions: Homo sapiens;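 further: growth inhibition of human A673 cells, read out through a cell viability assay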
Description: SANGER: Inhibition of human A673 cell growth in a cell viability assay.

CHL-1 = assay: cells; assay type: functional, cell-based; conditions: Homo sapiens;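 further: cell growth inhibition, read out with a cell viability assay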
Description: SANGER: Inhibition of human CHL-1 cell growth in a cell viability assay.

NCI-H2342 = assay: cells; assay type: functional, cell-based; conditions: Homo sapiens;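 further: growth inhibition of the cancer cell line, determined with a cell viability assay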
Description: SANGER: Inhibition of human NCI-H2342 cell growth in a cell viability assay.

Huh-7 = assay: cells; assay type: functional, cell-based; conditions: Homo sapiens;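 further: HuH-7 cell growth inhibition, read out with a cell viability assay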
Description: SANGER: Inhibition of human HuH-7 cell growth in a cell viability assay.

P12-Ichikawa = assay: cells; assay type: functional, cell-based; conditions: Homo sapiens
COR-L279 = assay: SANGER: Inhibition of human COR-L279 cell growth in a cell viability assay.; assay type: functional, cell-based
SW1417 = assay: cells; assay type: functional, cell-based; conditions: Homo sapiens;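 further: growth inhibition of human SW1417 cells, read out with a cell viability assay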
Description: SANGER: Inhibition of human SW1417 cell growth in a cell viability assay.

MKN-45 = assay: cells; assay type: functional, cell-based; conditions: Homo sapiens;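 further: growth inhibition of human MKN-45 cells, measured with a cell viability assay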
Description: SANGER: Inhibition of human MKN45 cell growth in a cell viability assay.

SNU-387 = assay: cells; assay type: functional, cell-based; conditions: Homo sapiens
Description: SANGER: Inhibition of human SNU-387 cell growth in a cell viability assay.

TE-441-T = assay: cells; assay type: functional, cell-based; conditions: Homo sapiens
Description: SANGER: Inhibition of human TE-441-T cell growth in a cell viability assay.

HT-1080 = assay: cells; assay type: functional, cell-based; conditions: Homo sapiens
Description: SANGER: Inhibition of human HT-1080 cell growth in a cell viability assay.

SIMA = assay: cells; assay type: functional, cell-based; conditions: Homo sapiens;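 further: growth inhibition of SIMA cells, measured with a cell viability readout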
Description: SANGER: Inhibition of human SIMA cell growth in a cell viability assay.

NCI-H2170 = assay: cells; assay type: functional, cell-based; conditions: Homo sapiens;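 further: cell viability assay measuring growth inhibition of human NCI-H2170 cancer cells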
Description: SANGER: Inhibition of human NCI-H2170 cell growth in a cell viability assay.

SK-LU-1 = assay: cells; assay type: functional, cell-based; conditions: Homo sapiens;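 further: cell viability assay measuring growth inhibition of human SK-LU-1 cells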
Description: SANGER: Inhibition of human SK-LU-1 cell growth in a cell viability assay.

KYSE-270 = assay: cells; assay type: functional, cell-based; conditions: Homo sapiens;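 further: cell growth inhibition measured with a viability assay in the human KYSE-270 line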
Description: SANGER: Inhibition of human KYSE-270 cell growth in a cell viability assay.

UMUC3 = assay: cells; assay type: functional, cell-based; conditions: Homo sapiens;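 further: growth inhibition of human UM-UC-3 cells, read out with a cell viability assay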
Description: SANGER: Inhibition of human UM-UC-3 cell growth in a cell viability assay.

NCI-H2009 = assay: cells; assay type: functional, cell-based; conditions: Homo sapiens;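 further: cell viability assay measuring inhibition of NCI-H2009 cell growth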
Description: SANGER: Inhibition of human NCI-H2009 cell growth in a cell viability assay.

OVCAR-8 = assay: cells; assay type: functional, cell-based; conditions: Homo sapiens;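 further: growth inhibition of human OVCAR-8 cells, read out by a cell viability assay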
Description: SANGER: Inhibition of human OVCAR-8 cell growth in a cell viability assay.

KP-4 = assay: cells; assay type: functional, cell-based; conditions: Homo sapiens;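 further: human KP-4 cells, with growth inhibition read out through a cell viability assay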
Description: SANGER: Inhibition of human KP-4 cell growth in a cell viability assay.

SW1088 = assay: cells; assay type: functional, cell-based; conditions: Homo sapiens;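 further: growth inhibition of human SW1088 cells, read out by a cell viability assay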
Description: SANGER: Inhibition of human SW1088 cell growth in a cell viability assay.

MONO-MAC-6 = assay: cells; assay type: functional, cell-based; conditions: Homo sapiens
Description: SANGER: Inhibition of human MONO-MAC-6 cell growth in a cell viability assay.

T98G = assay: cells; assay type: functional, cell-based; conditions: Homo sapiens
Description: SANGER: Inhibition of human T98G cell growth in a cell viability assay.

NCI-H596 = assay: cells; assay type: functional, cell-based; conditions: Homo sapiens
Description: SANGER: Inhibition of human NCI-H596 cell growth in a cell viability assay.

KYSE-450 = assay: cells; assay type: functional, cell-based; conditions: Homo sapiens
Description: SANGER: Inhibition of human KYSE-450 cell growth in a cell viability assay.

TCC-SUP = assay: cells; assay type: functional, cell-based; conditions: Homo sapiens
Description: SANGER: Inhibition of human TCCSUP cell growth in a cell viability assay.

**Q.** `CC(C)=CC[C@@H](O)C1=CC(=O)c2c(O)ccc(O)c2C1=O` [SHIKONIN] was tested. Which IC50 (NCI-H1993) did it give?
**A.** 2.94 µM

**Q.** What about the IC50 (KYSE-140) of the same molecule?
**A.** 0.374 µM

**Q.** What about the IC50 (MFE-280) of the same molecule?
**A.** 4.95 µM

**Q.** What about the IC50 (CAL-62) of the same molecule?
**A.** 1.28 µM

**Q.** And the IC50 (MKN-28)?
**A.** 0.617 µM

**Q.** And the IC50 (NCI-H2196)?
**A.** 0.654 µM

**Q.** What about the IC50 (SW1783) of the same molecule?
**A.** 1.07 µM

**Q.** And the IC50 (NCI-H64)?
**A.** 0.547 µM

**Q.** And the IC50 (OAW-28)?
**A.** 1.2 µM

**Q.** And the IC50 (TUR)?
**A.** 0.466 µM

**Q.** And the IC50 (NCI-H522)?
**A.** 0.56 µM

**Q.** And the IC50 (MG-63)?
**A.** 0.257 µM

**Q.** And the IC50 (SU-DHL-1)?
**A.** 0.499 µM

**Q.** And the IC50 (KOSC-2)?
**A.** 1.49 µM

**Q.** And the IC50 (MKN-1)?
**A.** 0.236 µM

**Q.** And the IC50 (JEG-3)?
**A.** 3.17 µM

**Q.** What about the IC50 (NCI-H358) of the same molecule?
**A.** 0.658 µM

**Q.** What about the IC50 (Capan-2) of the same molecule?
**A.** 1.01 µM

**Q.** And the IC50 (LU-165)?
**A.** 0.634 µM

**Q.** What about the IC50 (EVSA-T) of the same molecule?
**A.** 0.41 µM

**Q.** What about the IC50 (SIG-M5) of the same molecule?
**A.** 0.17 µM

**Q.** And the IC50 (HT-3)?
**A.** 0.948 µM

**Q.** And the IC50 (RT-112)?
**A.** 0.0704 µM

**Q.** What about the IC50 (OVCAR-3) of the same molecule?
**A.** 0.383 µM

**Q.** What about the IC50 (KYSE-180) of the same molecule?
**A.** 1.01 µM

**Q.** And the IC50 (HCT-15)?
**A.** 0.268 µM

**Q.** What about the IC50 (647-V) of the same molecule?
**A.** 0.359 µM

**Q.** What about the IC50 (NB1) of the same molecule?
**A.** 1.03 µM

**Q.** And the IC50 (NCI-H1755)?
**A.** > 16 µM

**Q.** What about the IC50 (YKG-1) of the same molecule?
**A.** 0.229 µM

**Q.** And the IC50 (HT55)?
**A.** 1.69 µM

**Q.** What about the IC50 (SK-HEP1) of the same molecule?
**A.** 0.548 µM

**Q.** What about the IC50 (COLO-792) of the same molecule?
**A.** > 16 µM

**Q.** What about the IC50 (BFTC-909) of the same molecule?
**A.** 3.63 µM

**Q.** What about the IC50 (SAOS-2) of the same molecule?
**A.** 2.37 µM

**Q.** And the IC50 (AU565)?
**A.** 1.24 µM

**Q.** And the IC50 (ME-180)?
**A.** 0.279 µM

**Q.** And the IC50 (SCC-3)?
**A.** 1 µM

**Q.** What about the IC50 (NCI-H1563) of the same molecule?
**A.** 0.626 µM

**Q.** What about the IC50 (A673) of the same molecule?
**A.** 1.22 µM

**Q.** What about the IC50 (CHL-1) of the same molecule?
**A.** 0.168 µM

**Q.** And the IC50 (NCI-H2342)?
**A.** 0.134 µM

**Q.** And the IC50 (Huh-7)?
**A.** 1.96 µM

**Q.** And the IC50 (P12-Ichikawa)?
**A.** 1.39 µM

**Q.** And the IC50 (COR-L279)?
**A.** > 16 µM

**Q.** And the IC50 (SW1417)?
**A.** 0.826 µM

**Q.** What about the IC50 (MKN-45) of the same molecule?
**A.** 0.608 µM

**Q.** What about the IC50 (SNU-387) of the same molecule?
**A.** 1.07 µM

**Q.** What about the IC50 (TE-441-T) of the same molecule?
**A.** < 0.0625 µM

**Q.** What about the IC50 (HT-1080) of the same molecule?
**A.** 0.26 µM

**Q.** And the IC50 (SIMA)?
**A.** 2.32 µM

**Q.** And the IC50 (NCI-H2170)?
**A.** 1.72 µM

**Q.** And the IC50 (SK-LU-1)?
**A.** 0.75 µM

**Q.** And the IC50 (KYSE-270)?
**A.** 0.217 µM

**Q.** And the IC50 (UMUC3)?
**A.** 0.967 µM

**Q.** What about the IC50 (NCI-H2009) of the same molecule?
**A.** 0.0205 µM

**Q.** And the IC50 (OVCAR-8)?
**A.** 0.46 µM

**Q.** And the IC50 (KP-4)?
**A.** 0.501 µM

**Q.** What about the IC50 (SW1088) of the same molecule?
**A.** 0.7 µM

**Q.** And the IC50 (MONO-MAC-6)?
**A.** 0.245 µM

**Q.** What about the IC50 (T98G) of the same molecule?
**A.** 1.08 µM

**Q.** What about the IC50 (NCI-H596) of the same molecule?
**A.** 0.818 µM

**Q.** What about the IC50 (KYSE-450) of the same molecule?
**A.** 0.138 µM

**Q.** What about the IC50 (TCC-SUP) of the same molecule?
**A.** 0.554 µM

**Q.** Which results are given for `C/C(O)=C(\C#N)C(=O)Nc1cc(Br)ccc1Br`?
**A.** IC50 (NCI-H1993): > 16 µM; IC50 (KYSE-140): > 16 µM; IC50 (MFE-280): > 16 µM; IC50 (CAL-62): > 16 µM; IC50 (MKN-28): > 16 µM; IC50 (NCI-H2196): > 16 µM; IC50 (SW1783): > 16 µM; IC50 (NCI-H64): > 16 µM; IC50 (OAW-28): > 16 µM; IC50 (TUR): > 16 µM; IC50 (NCI-H522): > 16 µM; IC50 (MG-63): > 16 µM; IC50 (SU-DHL-1): > 16 µM; IC50 (KOSC-2): > 16 µM; IC50 (MKN-1): > 16 µM; IC50 (JEG-3): > 16 µM; IC50 (NCI-H358): > 16 µM; IC50 (Capan-2): > 16 µM; IC50 (LU-165): > 16 µM; IC50 (EVSA-T): > 16 µM; IC50 (SIG-M5): > 16 µM; IC50 (HT-3): > 16 µM; IC50 (RT-112): > 16 µM; IC50 (OVCAR-3): > 16 µM; IC50 (KYSE-180): > 16 µM; IC50 (HCT-15): > 16 µM; IC50 (647-V): > 16 µM; IC50 (NB1): > 16 µM; IC50 (NCI-H1755): > 16 µM; IC50 (YKG-1): > 16 µM; IC50 (HT55): > 16 µM; IC50 (SK-HEP1): > 16 µM; IC50 (COLO-792): > 16 µM; IC50 (BFTC-909): > 16 µM; IC50 (SAOS-2): > 16 µM; IC50 (AU565): > 16 µM; IC50 (ME-180): > 16 µM; IC50 (SCC-3): > 16 µM; IC50 (NCI-H1563): > 16 µM; IC50 (A673): > 16 µM; IC50 (CHL-1): > 16 µM; IC50 (NCI-H2342): > 16 µM; IC50 (Huh-7): > 16 µM; IC50 (P12-Ichikawa): > 16 µM; IC50 (COR-L279): > 16 µM; IC50 (SW1417): > 16 µM; IC50 (MKN-45): > 16 µM; IC50 (SNU-387): > 16 µM; IC50 (TE-441-T): > 16 µM; IC50 (HT-1080): > 16 µM; IC50 (SIMA): > 16 µM; IC50 (NCI-H2170): > 16 µM; IC50 (SK-LU-1): > 16 µM; IC50 (KYSE-270): > 16 µM; IC50 (UMUC3): > 16 µM; IC50 (NCI-H2009): > 16 µM; IC50 (OVCAR-8): > 16 µM; IC50 (KP-4): > 16 µM; IC50 (SW1088): > 16 µM; IC50 (MONO-MAC-6): > 16 µM; IC50 (T98G): > 16 µM; IC50 (NCI-H596): > 16 µM; IC50 (KYSE-450): > 16 µM; IC50 (TCC-SUP): > 16 µM
